Columns and labels:
[1] = both, human, in vivo
From the text: Based on the befiradol Cmax values observed in healthy male volunteers reported in WO 2016/005527, the sustained release compositions disclosed above in Tables 26-28 would be expected to provide Cmax values not less than those shown in Table 29 after a single oral administration to patients with Parkinson's disease. […] Therefore, the Cmax values in Table 29 for SR1-SR9 may be higher (e.g., by 10% or 20%) when administered to patients with Parkinson's disease since young adults rarely experience Parkinson's disease, which usually develops around age 60 or older.

[2] = system: L-DOPA-induced dyskinesia in Parkinson's disease patients; assay: Unified Dyskinesia Rating Scale (UDysRS) after 150% L-DOPA challenge; settings: for UDysRS Part 3+4 score, change from baseline: PPS
Procedure: Patients were rated for dyskinesia at baseline and on days 28 (at end of up-titration period) and 42 (end of stable dosing period). Because the level of dyskinesia experienced by patients can vary over time, they were given 150% (i.e., 1.5×) of their regular L-DOPA dose (up to a maximum of 250 mg) as a challenge 30 min before each dyskinesia assessment to improve comparability between patients and between visits. Patients were filmed 30, 60 and 90 min after dosing with L-DOPA (˜5 min of filming each time). LID was assessed using the Unified Dyskinesia Rating Scale (UDysRS). Changes from baseline are shown for total score (i.e., Parts 1 to 4), for total objective score (i.e., Parts 3+4), and for the sum of Part 3 objective impairment assessment scores. Because objective LID assessment was carried out at 3 time-points (30, 60 and 90 min) following L-DOPA challenge, the above parameters were analyzed based on the most severe of the three scores as well as on the average score of the 3 time points.
The patient took 150% of their normal L-DOPA dose 30 minutes prior to the start of efficacy assessments (UDysRS) at Day 1 (Visit 2), Day 28 (Visit 6) and Day 42 (Visit 7).
The UDysRS is a rating instrument designed to assess the core features of dyskinesia in Parkinson's Disease. The UDysRS consists of 4 parts: • r. Part I, historical disability with regard to the patient's perceptions of the impact on activities of ADL of on-dyskinesia. • s. Part II, historical disability with regard to the patient's perceptions of the impact on ADL of off-dystonia. • t. Part III, objective impairment, which assesses severity of dyskinesia, affected body parts, and type of impairment (choreic vs. dystonic). • u. Part IV, objective disability, based on an evaluation of Part III activities.
Each item in the UDysRS is scored from 0 to 4, with a possible maximum total score of 104.
The UDysRS assessment would be performed at baseline (Day 1, Visit 2), Day 28 and Day 42 (Visits 6 and 7) starting approximately 30 minutes after the L-DOPA challenge on these days.
The data for all 3 assessments performed at each visit would be entered in the eCRF and the Investigator will highlight which of the assessments, corresponding to the assessment where the patient had most severe dyskinesia, that would be used in the descriptive summaries of data.
Change from baseline in the UDysRS total score to Visit 6 (Day 28) and Visit 7 (Day 42) respectively would be summarized using descriptive statistics. […] The same analysis would be done for UDysRS total objective score Part III and IV only.
The baseline value of the dependent variable has been included in the model as a continuous covariate.

[3] = 5 patients co-treated with amantadine
[4] = Full analysis set, Visit 2 Baseline
[5] = Full analysis set, Visit 6 Clinic Efficacy Visit
[6] = Full analysis set, Visit 7 Clinic Efficacy Visit
[7] = Full analysis set, average of assessment sessions Part 3 and Part 4, Visit 2 Baseline
[8] = Full analysis set, average of assessment sessions Part 3 and Part 4, Visit 6 Clinic Efficacy Visit
[9] = Full analysis set, average of assessment sessions Part 3 and Part 4, Visit 7 Clinic Efficacy Visit
[10] = Full analysis set, average of assessment sessions, highest item score, Visit 2 Baseline
[11] = Full analysis set, average of assessment sessions, highest item score, Visit 6 Clinic Efficacy Visit
[12] = Full analysis set, average of assessment sessions, highest item score, Visit 7 Clinic Efficacy Visit
[13] = Full analysis set, most severe session, highest item score, Visit 2 Baseline
[14] = Full analysis set, most severe session, highest item score, Visit 6 Clinic Efficacy Visit
[15] = Full analysis set, most severe session, highest item score, Visit 7 Clinic Efficacy Visit
[16] = Visit 2 Baseline, per protocol analysis set, N = 15

Cc1ccc(CNCC2(F)CCN(C(=O)c3ccc(F)c(Cl)c3)CC2)nc1 [NLX-112, (3-chloro-4-fluoro-phenyl)-[4-fluoro-4-{[(5-methyl-pyridin-2-ylmethyl)-amino]-methyl}piperidin-1-yl]methanone]
Cmax in female subjects, higher than males [1]: 20%-40
UDysRS Part 3 + 4, mean change from baseline [2, 3]: −4.4
UDysRS Total, mean change from baseline [2, 3]: −4.0
UDysRS Part 3+4 score, change from baseline ([2]; Day 28, average of 3 assessments (30, 60, 90 min), p=0.0065): −2.49 points
UDysRS total score (Parts 1-4), change from baseline ([2]; Day 28, most severe assessment, PPS n=15, p=0.0281 vs baseline): −4.1 points
UDysRS Part 3+4 score, change from baseline ([2]; Day 28, most severe assessment, not statistically significant): −1.7 points
UDysRS sum of Part 3 items, average of all 3 assessments, vs baseline ([2]; Day 28 and Day 42, within NLX-112 group): significant reduction
UDysRS total score or total objective (Parts 3 and 4) score, change from baseline, NLX-112 vs placebo ([2]; Day 28 or Day 42): no significant differences
UDysRS Part 3+4 score, change from baseline ([2]; Day 42, average of 3 assessments (30, 60, 90 min), p=0.0005): −3.31 points
UDysRS total score (Parts 1-4), change from baseline ([2]; Day 42, most severe assessment, PPS n=15, p=0.0016 vs baseline): −6.3 points
UDysRS Part 3+4 score, change from baseline ([2]; Day 42, most severe assessment, p=0.0038 vs baseline): −3.1 points
UDysRS Parts 1, 2, 3, and 4 most severe, collected value, mean [2, 4]: 31.8
UDysRS Parts 1, 2, 3, and 4 most severe, collected value, median [2, 4]: 31.0
UDysRS Parts 1, 2, 3, and 4 most severe, absolute change from baseline, mean [2, 5]: −4.1
UDysRS Parts 1, 2, 3, and 4 most severe, absolute change from baseline, median [2, 5]: −2.0
UDysRS Parts 1, 2, 3, and 4 most severe, collected value, mean [2, 5]: 27.5
UDysRS Parts 1, 2, 3, and 4 most severe, collected value, median [2, 5]: 28.0
UDysRS Parts 1, 2, 3, and 4 most severe, relative change from baseline (%), mean [2, 5]: −10.2%
UDysRS Parts 1, 2, 3, and 4 most severe, relative change from baseline (%), median [2, 5]: −6.45%
UDysRS Parts 1, 2, 3, and 4 most severe, absolute change from baseline, mean [2, 6]: −6.3
UDysRS Parts 1, 2, 3, and 4 most severe, absolute change from baseline, median [2, 6]: −8.0
UDysRS Parts 1, 2, 3, and 4 most severe, collected value, mean [2, 6]: 25.3
UDysRS Parts 1, 2, 3, and 4 most severe, collected value, median [2, 6]: 24.0
UDysRS Parts 1, 2, 3, and 4 most severe, relative change from baseline (%), mean [2, 6]: −19.0%
UDysRS Parts 1, 2, 3, and 4 most severe, relative change from baseline (%), median [2, 6]: −25.8%
UDysRS Parts 1, 2, 3, and 4 average, collected value, mean [2, 7]: 30.43
UDysRS Parts 1, 2, 3, and 4 average, collected value, median [2, 7]: 29.67
UDysRS Parts 1, 2, 3, and 4 average, absolute change from baseline, mean [2, 8]: −4.82
UDysRS Parts 1, 2, 3, and 4 average, absolute change from baseline, median [2, 8]: −3.00
UDysRS Parts 1, 2, 3, and 4 average, collected value, mean [2, 8]: 25.33
UDysRS Parts 1, 2, 3, and 4 average, collected value, median [2, 8]: 25.33
UDysRS Parts 1, 2, 3, and 4 average, relative change from baseline (%), mean [2, 8]: −9.33%
UDysRS Parts 1, 2, 3, and 4 average, relative change from baseline (%), median [2, 8]: −10.6%
UDysRS Parts 1, 2, 3, and 4 average, absolute change from baseline, mean [2, 9]: −6.51
UDysRS Parts 1, 2, 3, and 4 average, absolute change from baseline, median [2, 9]: −7.67
UDysRS Parts 1, 2, 3, and 4 average, collected value, mean [2, 9]: 23.64
UDysRS Parts 1, 2, 3, and 4 average, collected value, median [2, 9]: 23.00
UDysRS Parts 1, 2, 3, and 4 average, relative change from baseline (%), mean [2, 9]: −19.5%
UDysRS Parts 1, 2, 3, and 4 average, relative change from baseline (%), median [2, 9]: −21.9%
UDysRS Parts 3 and 4 average, collected value, mean [2, 10]: 13.98
UDysRS Parts 3 and 4 average, collected value, median [2, 10]: 13.17
UDysRS Parts 3 and 4 average, absolute change from baseline, mean [2, 11]: −2.49
UDysRS Parts 3 and 4 average, absolute change from baseline, median [2, 11]: −1.67
UDysRS Parts 3 and 4 average, collected value, mean [2, 11]: 11.60
UDysRS Parts 3 and 4 average, collected value, median [2, 11]: 10.33
UDysRS Parts 3 and 4 average, relative change from baseline (%), mean [2, 11]: −17.3%
UDysRS Parts 3 and 4 average, relative change from baseline (%), median [2, 11]: −20.0%
UDysRS Parts 3 and 4 average, absolute change from baseline, mean [2, 12]: −3.31
UDysRS Parts 3 and 4 average, absolute change from baseline, median [2, 12]: −3.33
UDysRS Parts 3 and 4 average, collected value, mean [2, 12]: 10.78
UDysRS Parts 3 and 4 average, collected value, median [2, 12]: 9.67
UDysRS Parts 3 and 4 average, relative change from baseline (%), mean [2, 12]: −25.3%
UDysRS Parts 3 and 4 average, relative change from baseline (%), median [2, 12]: −31.5%
UDysRS Parts 3 and 4 most severe, collected value, mean [2, 13]: 15.3
UDysRS Parts 3 and 4 most severe, collected value, median [2, 13]: 13.5
UDysRS Parts 3 and 4 most severe, absolute change from baseline, mean [2, 14]: −1.7
UDysRS Parts 3 and 4 most severe, absolute change from baseline, median [2, 14]: −1.0
UDysRS Parts 3 and 4 most severe, collected value, mean [2, 14]: 13.8
UDysRS Parts 3 and 4 most severe, collected value, median [2, 14]: 12.0
UDysRS Parts 3 and 4 most severe, relative change from baseline (%), mean [2, 14]: −15.8%
UDysRS Parts 3 and 4 most severe, relative change from baseline (%), median [2, 14]: −8.33%
UDysRS Parts 3 and 4 most severe, absolute change from baseline, mean [2, 15]: −3.1
UDysRS Parts 3 and 4 most severe, absolute change from baseline, median [2, 15]: −4.0
UDysRS Parts 3 and 4 most severe, collected value, mean [2, 15]: 12.4
UDysRS Parts 3 and 4 most severe, collected value, median [2, 15]: 11.0
UDysRS Parts 3 and 4 most severe, relative change from baseline (%), mean [2, 15]: −21.0%
UDysRS Parts 3 and 4 most severe, relative change from baseline (%), median [2, 15]: −31.6%
UDysRS Parts 1, 2, 3, and 4 average, collected value, mean [2, 16]: 30.16
UDysRS Parts 1, 2, 3, and 4 average, collected value, median [2, 16]: 29.33
UDysRS Parts 1, 2, 3, and 4 most severe, collected value, mean [2, 16]: 31.6
UDysRS Parts 1, 2, 3, and 4 most severe, collected value, median [2, 16]: 31.0
UDysRS Parts 3 and 4 average, collected value, mean [2, 16]: 14.09
UDysRS Parts 3 and 4 average, collected value, median [2, 16]: 13.00
UDysRS Parts 3 and 4 most severe, collected value, mean [2, 16]: 15.5
UDysRS Parts 3 and 4 most severe, collected value, median [2, 16]: 14.0
UDysRS Parts 1, 2, 3, and 4 average, absolute change from baseline, mean ([2]; Visit 6 Clinic Efficacy Visit (Day 28), per protocol analysis set, N = 15): −4.82
